According to the NIST ThermoML archive (doi:10.1021/acs.jced.7b00106):
Numbers after ± are expanded uncertainties.

Details: Hot wire method

FC(F)(F)/C=C/Cl [(E)-1-chloro-3,3,3-trifluoroprop-1-ene]
Details | thermal conductivity [W/m/K]
423.65 K, 7612 kPa, Liquid | 0.05622 ± 0.0015
423.65 K, 7619 kPa, Liquid | 0.05627 ± 0.0011
423.65 K, 22720 kPa, Liquid | 0.06706 ± 0.00087
423.66 K, 22716 kPa, Liquid | 0.06723 ± 0.00076
423.67 K, 28114 kPa, Liquid | 0.07024 ± 0.0015
423.69 K, 28097 kPa, Liquid | 0.07022 ± 0.00091
423.72 K, 13391 kPa, Liquid | 0.0611 ± 0.00076
423.72 K, 13398 kPa, Liquid | 0.06111 ± 0.00076
423.77 K, 20045 kPa, Liquid | 0.06561 ± 0.0016
423.77 K, 20052 kPa, Liquid | 0.06562 ± 0.0021
423.78 K, 11664 kPa, Liquid | 0.05978 ± 0.0051
423.79 K, 11674 kPa, Liquid | 0.05981 ± 0.0011
423.83 K, 25690 kPa, Liquid | 0.06889 ± 0.0013
423.84 K, 25696 kPa, Liquid | 0.06888 ± 0.0015
423.85 K, 10139 kPa, Liquid | 0.05851 ± 0.0012
423.86 K, 10145 kPa, Liquid | 0.05848 ± 0.0007
423.86 K, 17471 kPa, Liquid | 0.06395 ± 0.0078
423.87 K, 17475 kPa, Liquid | 0.06396 ± 0.0077
423.93 K, 15376 kPa, Liquid | 0.06253 ± 0.0015
423.93 K, 15379 kPa, Liquid | 0.06254 ± 0.0015
423.94 K, 22691 kPa, Liquid | 0.06716 ± 0.0018
423.95 K, 22710 kPa, Liquid | 0.06724 ± 0.00088
424.02 K, 13386 kPa, Liquid | 0.06109 ± 0.0007
424.02 K, 13393 kPa, Liquid | 0.06113 ± 0.0011
451.03 K, 4240 kPa, Fluid (supercritical or subcritical phases) | 0.04303
451.04 K, 4194 kPa, Fluid (supercritical or subcritical phases) | 0.04141
451.04 K, 4285 kPa, Fluid (supercritical or subcritical phases) | 0.0443
451.05 K, 4194 kPa, Fluid (supercritical or subcritical phases) | 0.04138
451.05 K, 4285 kPa, Fluid (supercritical or subcritical phases) | 0.04428
451.1 K, 4194 kPa, Fluid (supercritical or subcritical phases) | 0.0413
451.11 K, 4329 kPa, Fluid (supercritical or subcritical phases) | 0.04555
451.12 K, 4329 kPa, Fluid (supercritical or subcritical phases) | 0.04569
451.13 K, 4146 kPa, Fluid (supercritical or subcritical phases) | 0.03927
451.14 K, 4146 kPa, Fluid (supercritical or subcritical phases) | 0.03925
451.15 K, 4091 kPa, Fluid (supercritical or subcritical phases) | 0.03775
451.19 K, 4240 kPa, Fluid (supercritical or subcritical phases) | 0.0441 ± 0.019
451.2 K, 4146 kPa, Fluid (supercritical or subcritical phases) | 0.03962
451.2 K, 4240 kPa, Fluid (supercritical or subcritical phases) | 0.04407 ± 0.02
451.21 K, 4024 kPa, Fluid (supercritical or subcritical phases) | 0.03539
451.21 K, 4146 kPa, Fluid (supercritical or subcritical phases) | 0.03961
451.21 K, 4329 kPa, Fluid (supercritical or subcritical phases) | 0.0465
451.22 K, 4091 kPa, Fluid (supercritical or subcritical phases) | 0.03768
451.22 K, 4285 kPa, Fluid (supercritical or subcritical phases) | 0.04586
451.22 K, 4329 kPa, Fluid (supercritical or subcritical phases) | 0.04642
451.24 K, 4335 kPa, Fluid (supercritical or subcritical phases) | 0.04596
451.24 K, 4404 kPa, Fluid (supercritical or subcritical phases) | 0.04602
451.25 K, 4146 kPa, Fluid (supercritical or subcritical phases) | 0.03998
451.25 K, 4335 kPa, Fluid (supercritical or subcritical phases) | 0.04625
451.25 K, 4404 kPa, Fluid (supercritical or subcritical phases) | 0.04634
451.26 K, 3939 kPa, Fluid (supercritical or subcritical phases) | 0.03353 ± 0.0096
451.27 K, 4025 kPa, Fluid (supercritical or subcritical phases) | 0.03578 ± 0.015
451.28 K, 4024 kPa, Fluid (supercritical or subcritical phases) | 0.03519
451.28 K, 4091 kPa, Fluid (supercritical or subcritical phases) | 0.03788
451.29 K, 4090 kPa, Fluid (supercritical or subcritical phases) | 0.0379
451.3 K, 4146 kPa, Fluid (supercritical or subcritical phases) | 0.04026
451.31 K, 4146 kPa, Fluid (supercritical or subcritical phases) | 0.04022
451.32 K, 3831 kPa, Fluid (supercritical or subcritical phases) | 0.03175 ± 0.015
451.35 K, 3691 kPa, Fluid (supercritical or subcritical phases) | 0.02988 ± 0.0076
451.35 K, 4024 kPa, Fluid (supercritical or subcritical phases) | 0.03573
451.35 K, 4025 kPa, Fluid (supercritical or subcritical phases) | 0.03528
451.35 K, 4091 kPa, Fluid (supercritical or subcritical phases) | 0.0383 ± 0.018
451.36 K, 3691 kPa, Fluid (supercritical or subcritical phases) | 0.02992 ± 0.0081
451.36 K, 4091 kPa, Fluid (supercritical or subcritical phases) | 0.03832 ± 0.019
451.37 K, 4404 kPa, Fluid (supercritical or subcritical phases) | 0.04741 ± 0.011
451.38 K, 3649 kPa, Fluid (supercritical or subcritical phases) | 0.02977 ± 0.011
451.39 K, 3831 kPa, Fluid (supercritical or subcritical phases) | 0.03167 ± 0.012
451.4 K, 3831 kPa, Fluid (supercritical or subcritical phases) | 0.03184 ± 0.0098
451.41 K, 3939 kPa, Fluid (supercritical or subcritical phases) | 0.03376
451.42 K, 3508 kPa, Fluid (supercritical or subcritical phases) | 0.02833 ± 0.0078
451.43 K, 3509 kPa, Fluid (supercritical or subcritical phases) | 0.02845 ± 0.0059
451.44 K, 3691 kPa, Fluid (supercritical or subcritical phases) | 0.02982
451.44 K, 4090 kPa, Fluid (supercritical or subcritical phases) | 0.03859
